Assay results taken from the NIST ThermoML archive (doi:10.1021/je200195q).
± gives the expanded uncertainty stated by the source.

Assay: activity coefficient (dimensionless); of the first substance listed, at infinite dilution; xn = mol fraction of the nth substance listed
Details: 101 kPa, Liquid, Chromatography, x1 = 0

CCCCCCCCC [nonane] + CCCCn1cc[n+](C)c1.O=S(=O)([N-]S(=O)(=O)C(F)(F)C(F)(F)F)C(F)(F)C(F)(F)F
activity coefficient (322.55 K): 31.5 ± 2.2
activity coefficient (342.75 K): 26 ± 1.8
activity coefficient (362.65 K): 21.8 ± 1.5

Cc1ccccc1C [1,2-dimethylbenzene] + CCCCCC[n+]1ccn(C)c1.FC(F)(F)C(F)(F)[P-](F)(F)(F)(C(F)(F)C(F)(F)F)C(F)(F)C(F)(F)F
activity coefficient (312.8 K): 0.888 ± 0.057
activity coefficient (332.85 K): 0.947 ± 0.06
activity coefficient (354.65 K): 0.957 ± 0.06

CO [methanol] + CCCCCCCCCCn1cc[n+](CCCCCCCCCC)c1C.O=S(=O)([N-]S(=O)(=O)C(F)(F)F)C(F)(F)F
activity coefficient (323.1 K): 0.963 ± 0.061
activity coefficient (333.15 K): 0.857 ± 0.055
activity coefficient (343.15 K): 0.755 ± 0.05

CC1CCCCC1 [methylcyclohexane] + CCCCCC[n+]1ccn(C)c1.FC(F)(F)C(F)(F)[P-](F)(F)(F)(C(F)(F)C(F)(F)F)C(F)(F)C(F)(F)F
activity coefficient (312.8 K): 5.89 ± 0.4
activity coefficient (332.85 K): 5.23 ± 0.36
activity coefficient (354.65 K): 4.49 ± 0.31

CCC(=O)CC [pentan-3-one] + CCCCCC[n+]1ccn(C)c1.FC(F)(F)C(F)(F)[P-](F)(F)(F)(C(F)(F)C(F)(F)F)C(F)(F)C(F)(F)F
activity coefficient (312.8 K): 0.236 ± 0.029
activity coefficient (332.85 K): 0.28 ± 0.03
activity coefficient (354.65 K): 0.301 ± 0.031

CCCCCCC [heptane] + CCCCCCCCCCn1cc[n+](CCCCCCCCCC)c1C.O=S(=O)([N-]S(=O)(=O)C(F)(F)F)C(F)(F)F
activity coefficient (323.1 K): 2.53 ± 0.17
activity coefficient (333.15 K): 2.11 ± 0.14
activity coefficient (343.15 K): 2.08 ± 0.14

C#CCCCCC [1-heptyne] + CCCCCC[n+]1ccn(C)c1.FC(F)(F)C(F)(F)[P-](F)(F)(F)(C(F)(F)C(F)(F)F)C(F)(F)C(F)(F)F
activity coefficient (312.8 K): 2.54 ± 0.17
activity coefficient (332.85 K): 2.5 ± 0.17
activity coefficient (354.65 K): 2.32 ± 0.16

CCC(C)CC [3-methylpentane] + CCCCCC[n+]1ccn(C)c1.FC(F)(F)C(F)(F)[P-](F)(F)(F)(C(F)(F)C(F)(F)F)C(F)(F)C(F)(F)F
activity coefficient (312.8 K): 5.63 ± 0.38
activity coefficient (332.85 K): 5.05 ± 0.34
activity coefficient (354.65 K): 4.43 ± 0.3

CCCCCC [hexane] + CCCCCC[n+]1ccn(C)c1.FC(F)(F)C(F)(F)[P-](F)(F)(F)(C(F)(F)C(F)(F)F)C(F)(F)C(F)(F)F
activity coefficient (312.8 K): 6.39 ± 0.44
activity coefficient (332.85 K): 5.69 ± 0.39
activity coefficient (354.65 K): 4.41 ± 0.3

CCCCCC [hexane] + CCn1cc[n+](C)c1.CS(=O)(=O)[O-]
activity coefficient (312.55 K): 207 ± 14
activity coefficient (322.45 K): 190 ± 13
activity coefficient (332.45 K): 152 ± 10

CC(C)CC(C)(C)C [2,2,4-trimethylpentane] + CCn1cc[n+](C)c1.CS(=O)(=O)[O-]
activity coefficient (312.55 K): 445 ± 31
activity coefficient (322.45 K): 387 ± 27
activity coefficient (332.45 K): 334 ± 23

CCCCCCCC [octane] + CCCCCCCCCCn1cc[n+](CCCCCCCCCC)c1C.O=S(=O)([N-]S(=O)(=O)C(F)(F)F)C(F)(F)F
activity coefficient (323.1 K): 2.54 ± 0.17
activity coefficient (333.15 K): 2.48 ± 0.17
activity coefficient (343.15 K): 2.45 ± 0.17

ClCCl [dichloromethane] + CCCCn1cc[n+](C)c1.O=S(=O)([N-]S(=O)(=O)C(F)(F)C(F)(F)F)C(F)(F)C(F)(F)F
activity coefficient (322.55 K): 0.356 ± 0.033
activity coefficient (342.75 K): 0.436 ± 0.035
activity coefficient (362.65 K): 0.539 ± 0.039

CCOCC [diethyl ether] + CCCCCC[n+]1ccn(C)c1.FC(F)(F)C(F)(F)[P-](F)(F)(F)(C(F)(F)C(F)(F)F)C(F)(F)C(F)(F)F
activity coefficient (312.8 K): 0.837 ± 0.054
activity coefficient (332.85 K): 0.866 ± 0.055
activity coefficient (354.65 K): 0.897 ± 0.057

CCC(=O)CC [pentan-3-one] + CCCCn1cc[n+](C)c1.O=S(=O)([N-]S(=O)(=O)C(F)(F)C(F)(F)F)C(F)(F)C(F)(F)F
activity coefficient (322.55 K): 0.624 ± 0.043
activity coefficient (342.75 K): 0.656 ± 0.045
activity coefficient (362.65 K): 0.695 ± 0.047

CC(C)O [propan-2-ol] + CCn1cc[n+](C)c1.CS(=O)(=O)[O-]
activity coefficient (312.55 K): 0.924 ± 0.058
activity coefficient (322.45 K): 0.907 ± 0.058
activity coefficient (332.45 K): 0.877 ± 0.056

CCc1ccccc1 [ethylbenzene] + CCCCn1cc[n+](C)c1.O=S(=O)([N-]S(=O)(=O)C(F)(F)C(F)(F)F)C(F)(F)C(F)(F)F
activity coefficient (322.55 K): 2.04 ± 0.14
activity coefficient (342.75 K): 2.05 ± 0.14
activity coefficient (362.65 K): 2.06 ± 0.14

CC(C)O [propan-2-ol] + CCCCn1cc[n+](C)c1.O=S(=O)([N-]S(=O)(=O)C(F)(F)C(F)(F)F)C(F)(F)C(F)(F)F
activity coefficient (322.55 K): 1.77 ± 0.12
activity coefficient (342.75 K): 1.46 ± 0.096
activity coefficient (362.65 K): 1.25 ± 0.08

CCc1ccccc1 [ethylbenzene] + CCCCCC[n+]1ccn(C)c1.FC(F)(F)C(F)(F)[P-](F)(F)(F)(C(F)(F)C(F)(F)F)C(F)(F)C(F)(F)F
activity coefficient (312.8 K): 0.956 ± 0.06
activity coefficient (332.85 K): 1.03 ± 0.065
activity coefficient (354.65 K): 1.04 ± 0.066

CCCCCCCCCC [decane] + CCCCCC[n+]1ccn(C)c1.FC(F)(F)C(F)(F)[P-](F)(F)(F)(C(F)(F)C(F)(F)F)C(F)(F)C(F)(F)F
activity coefficient (312.8 K): 22.7 ± 1.6
activity coefficient (332.85 K): 19 ± 1.3
activity coefficient (354.65 K): 15.3 ± 1
